From patent US20260274832A1, “COMPOUNDS AND THEIR USE IN TREATING CANCER” (ASTRAZENECA AB, priority 2023, published 2026)

Tests used:
[1] = target: T1, AR (AR-full length) in LNCaP cells (Homo sapiens, UniProt P10275, T878A); assay: LNCaP Androgen Receptor Imaging Assay (immunofluorescence of endogenous nuclear AR); assay type: cell-based; settings: 24 h incubation; for DC50: concentration giving 50% of maximum degradation of AR per curve fit, single experiment or average of two or more; for Dmax: LNCaP, maximum degradation observed, normalized as % of positive control (prior art AR PROTAC at 3 μM)
T1 construct: the prostate cancer cell line LNCaP (expressing AR-full length); endogenous in cells; host or cells: LNCaP
T1 sequence (P10275 whole entry T878A): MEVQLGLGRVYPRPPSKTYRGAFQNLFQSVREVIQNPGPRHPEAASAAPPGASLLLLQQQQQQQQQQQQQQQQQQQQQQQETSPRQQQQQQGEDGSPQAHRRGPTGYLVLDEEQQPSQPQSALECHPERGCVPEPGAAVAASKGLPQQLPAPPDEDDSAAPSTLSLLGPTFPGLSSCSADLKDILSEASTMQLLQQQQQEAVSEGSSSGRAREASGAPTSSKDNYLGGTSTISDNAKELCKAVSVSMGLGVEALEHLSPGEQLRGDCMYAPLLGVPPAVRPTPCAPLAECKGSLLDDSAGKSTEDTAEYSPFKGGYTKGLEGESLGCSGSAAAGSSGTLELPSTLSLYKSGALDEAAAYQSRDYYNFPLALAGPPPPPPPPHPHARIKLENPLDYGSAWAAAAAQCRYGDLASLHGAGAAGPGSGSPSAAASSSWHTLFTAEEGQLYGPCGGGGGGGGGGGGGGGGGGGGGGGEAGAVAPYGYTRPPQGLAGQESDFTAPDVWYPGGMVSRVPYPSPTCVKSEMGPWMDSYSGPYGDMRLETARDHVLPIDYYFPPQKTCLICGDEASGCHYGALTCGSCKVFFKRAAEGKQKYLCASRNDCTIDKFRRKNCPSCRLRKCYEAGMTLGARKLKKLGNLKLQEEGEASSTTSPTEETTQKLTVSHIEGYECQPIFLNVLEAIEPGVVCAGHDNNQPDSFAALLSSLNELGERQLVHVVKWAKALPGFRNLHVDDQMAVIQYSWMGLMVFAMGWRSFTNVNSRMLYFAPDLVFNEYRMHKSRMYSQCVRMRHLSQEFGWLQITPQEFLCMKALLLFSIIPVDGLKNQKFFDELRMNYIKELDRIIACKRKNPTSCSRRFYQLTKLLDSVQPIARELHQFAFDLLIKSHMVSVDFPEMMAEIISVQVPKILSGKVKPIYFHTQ
T1 sequence (Q96SW2 whole entry partner): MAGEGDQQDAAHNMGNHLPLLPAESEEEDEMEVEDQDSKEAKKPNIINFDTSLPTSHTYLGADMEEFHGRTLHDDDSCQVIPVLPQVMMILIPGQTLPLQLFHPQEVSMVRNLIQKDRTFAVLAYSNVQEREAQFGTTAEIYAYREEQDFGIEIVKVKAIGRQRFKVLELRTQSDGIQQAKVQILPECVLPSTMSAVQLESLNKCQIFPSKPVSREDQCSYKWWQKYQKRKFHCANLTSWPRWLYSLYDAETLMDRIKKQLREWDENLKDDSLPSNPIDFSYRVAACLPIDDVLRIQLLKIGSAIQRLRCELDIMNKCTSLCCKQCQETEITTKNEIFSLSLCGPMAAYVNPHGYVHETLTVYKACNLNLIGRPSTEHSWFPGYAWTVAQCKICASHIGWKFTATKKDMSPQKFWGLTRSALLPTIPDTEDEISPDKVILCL
Summary of the method: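 LNCaP cells (12,000/well) received a 12-point compound dose series (0.3% DMSO) for 24 h at 37° C., then were PFA-fixed and stained for AR (AR441) and nuclei (DRAQ5). Nuclear AR was quantified by imaging, normalized to a 3 μM AR PROTAC control; DC50 and Dmax came from Hill/bell curve fits.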

[2] = target: T2, AR (L702H) in LNCaP cells (Homo sapiens, UniProt P10275, L702H/T878A); assay: LNCaP Androgen Receptor L702H Imaging Assay (LNCaP cells engineered by CRISPR/Cas9); assay type: cell-based; settings: LNCaP cells with AR L702H mutation, 24 h incubation; for DC50: concentration giving 50% of maximum degradation of AR (L702H) per curve fit; for Dmax: LNCaP, maximum degradation observed, normalized as % of positive control
T2 construct: engineered to introduce the mutation L702H into the AR gene using CRISPR/Cas9; endogenous in cells; host or cells: LNCaP cells edited by CRISPR/Cas9 at the AR gene
T2 sequence (P10275 whole entry L702H/T878A): as the sequence (P10275 whole entry T878A) above, with L702H counted along it
T2 sequence (Q96SW2 whole entry partner): as the sequence (Q96SW2 whole entry partner) above
Summary of the method: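 CRISPR-engineered LNCaP cells carrying AR L702H were treated 24 h at 37 °C with a 12-point compound dose response (0.3% DMSO), then fixed and immunostained for AR with DRAQ5 nuclear counterstain. Nuclear AR was quantified by imaging, normalized to positive control; DC50 and Dmax came from Hill or bell-shaped fits.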

Q: N#Cc1c[nH]c2c(N3CCC(c4ccc(N5CCC(CN6CCC(n7ccc8c(N9CCC(=O)NC9=O)cccc87)CC6)CC5)cc4)CC3)cccc12 [Example 59, 7-(4-{4-[4-({4-[4-(2,4-Dioxo-1,3-diazinan-1-yl)-1H-indol-1-yl]piperidin-1-yl}methyl)piperidin-1-yl]phenyl}piperidin-1-yl)-1H-indole-3-carbonitrile] was tested. Which DC50 [1] did it give?
A: 51 nM

Q: What about the Dmax [1] of the same compound?
A: 88%

Q: What about the DC50 [2] of the same compound?
A: 47 nM

Q: What about the Dmax [2] of the same compound?
A: 95%

Q: How did the DC50 [1] turn out when COc1cc(N2CCN(CC3CCN(c4ccc(C5CCN(c6ccc(Cl)c7c(C#N)c[nH]c67)CC5)nc4)CC3)CC2)cc2c1C(=O)N(C1CCC(=O)NC1=O)C2 (centres unmarked) [Example 60, 4-Chloro-7-(4-{5-[4-({4-[2-(2,6-dioxopiperidin-3-yl)-7-methoxy-1-oxo-2,3-dihydro-1H-isoindol-5-yl]piperazin-1-yl}methyl)piperidin-1-yl]pyridin-2-yl}piperidin-1-yl)-1H-indole-3-carbonitrile] was run?
A: 5 nM

Q: What about the Dmax [1] of the same compound?
A: 93%

Q: And the DC50 [2]?
A: 23 nM

Q: What about the Dmax [2] of the same compound?
A: 57%

Q: How did the DC50 [1] turn out when COc1nc(N2CCN(CC3CCN(c4ccc(C5CCN(c6ccc(Cl)c7c(C#N)c[nH]c67)CC5)nc4)CC3)CC2)cc2c1C(=O)N(C1CCC(=O)NC1=O)C2 (centres unmarked) [Example 61, 4-Chloro-7-(4-{5-[4-({4-[2-(2,6-dioxopiperidin-3-yl)-4-methoxy-3-oxo-2,3-dihydro-1H-pyrrolo[3,4-c]pyridin-6-yl]piperazin-1-yl}methyl)piperidin-1-yl]pyridin-2-yl}piperidin-1-yl)-1H-indole-3-carbonitrile] was run?
A: 6 nM

Q: What about the Dmax [1] of the same compound?
A: 94%

Q: And the DC50 [2]?
A: 25 nM

Q: What about the Dmax [2] of the same compound?
A: 65%

Q: What does the source list for N#Cc1c[nH]c2c(N3CCC(c4ccc(N5CCC(CN6CCC(n7ccc8c(N9CCC(=O)NC9=O)cccc87)CC6)CC5)cn4)CC3)ccc(Cl)c12 [Example 62, 4-Chloro-7-(4-{5-[4-({4-[4-(2,4-dioxo-1,3-diazinan-1-yl)-1H-indol-1-yl]piperidin-1-yl}methyl)piperidin-1-yl]pyridin-2-yl}piperidin-1-yl)-1H-indole-3-carbonitrile]?
A: DC50 [1]: 7 nM; Dmax [1]: 99%; DC50 [2]: 80 nM; Dmax [2]: 71%

Q: For N#Cc1c[nH]c2c(N3CCC(c4ccc(N5CCC(CN6CCC(n7ccc8c(N9CCC(=O)NC9=O)cccc87)CC6)CC5)nn4)CC3)ccc(Cl)c12 [Example 63, 4-Chloro-7-(4-{6-[4-({4-[4-(2,4-dioxo-1,3-diazinan-1-yl)-1H-indol-1-yl]piperidin-1-yl}methyl)piperidin-1-yl]pyridazin-3-yl}piperidin-1-yl)-1H-indole-3-carbonitrile], which DC50 [1] is on record?
A: 6 nM

Q: And the Dmax [1]?
A: 94%

Q: What about the DC50 [2] of the same compound?
A: 16 nM

Q: And the Dmax [2]?
A: 63%

Q: Which results are given for N#Cc1c[nH]c2c(N3CCC(c4ccc(N5CCC(CN6CCN(c7ccc8c(c7)CN(C7CCC(=O)NC7=O)C8=O)CC6)CC5)nn4)CC3)ccc(Cl)c12 (centres unmarked) [Example 64, 4-Chloro-7-(4-{6-[4-({4-[2-(2,6-dioxopiperidin-3-yl)-1-oxo-2,3-dihydro-1H-isoindol-5-yl]piperazin-1-yl}methyl)piperidin-1-yl]pyridazin-3-yl}piperidin-1-yl)-1H-indole-3-carbonitrile]?
A: DC50 [1]: 5 nM; Dmax [1]: 83%; DC50 [2]: 8 nM; Dmax [2]: 56%

Q: With N#Cc1c[nH]c2c(N3CCC(c4cnc(N5CCC(CN6CCC(n7ccc8c(N9CCC(=O)NC9=O)cccc87)CC6)CC5)cn4)CC3)ccc(Cl)c12 [Example 67] as the compound, how does the DC50 [1] read?
A: 4 nM

Q: And the Dmax [1]?
A: 98%

Q: What about the DC50 [2] of the same compound?
A: 14 nM

Q: And the Dmax [2]?
A: 87%

Q: How did the DC50 [1] turn out when N#Cc1c[nH]c2c(N3CCC(c4cnc(N5CCC(CN6CCN(c7ccc8c(c7)CN(C7CCC(=O)NC7=O)C8=O)CC6)CC5)cn4)CC3)ccc(Cl)c12 (centres unmarked) [Example 68, 4-Chloro-7-(4-{5-[4-({4-[2-(2,6-dioxopiperidin-3-yl)-1-oxo-2,3-dihydro-1H-isoindol-5-yl]piperazin-1-yl}methyl)piperidin-1-yl]pyrazin-2-yl}piperidin-1-yl)-1H-indole-3-carbonitrile] was run?
A: 6 nM

Q: And the Dmax [1]?
A: 97%

Q: And the DC50 [2]?
A: 21 nM

Q: What about the Dmax [2] of the same compound?
A: 84%

Q: For Cc1ccc(N2CCC(c3ccc(N4CCC(CN5CCN(Cc6cccc7c6n(C)c(=O)n7C6CCC(=O)NC6=O)CC5)CC4)cc3)CC2)c2[nH]cc(C#N)c12 (centres unmarked) [Example 69, 7-[4-(4-{4-[(4-{[1-(2,6-Dioxopiperidin-3-yl)-3-methyl-2-oxo-2,3-dihydro-1H-benzimidazol-4-yl]methyl}piperazin-1-yl)methyl]piperidin-1-yl}phenyl)piperidin-1-yl]-4-methyl-1H-indole-3-carbonitrile], which DC50 [1] is on record?
A: 9 nM

Q: What about the Dmax [1] of the same compound?
A: 92%

Q: What about the DC50 [2] of the same compound?
A: 5 nM

Q: What about the Dmax [2] of the same compound?
A: 94%

Q: Which results are given for Cn1c(=O)n(C2CCC(=O)NC2=O)c2cccc(CN3CCN(CC4CCN(c5ccc(C6CCN(c7ccc(Cl)c8c(C#N)c[nH]c78)CC6)cc5)CC4)CC3)c21 (centres unmarked) [Example 70, 4-Chloro-7-[4-(4-{4-[(4-{[1-(2,6-dioxopiperidin-3-yl)-3-methyl-2-oxo-2,3-dihydro-1H-benzimidazol-4-yl]methyl}piperazin-1-yl)methyl]piperidin-1-yl}phenyl)piperidin-1-yl]-1H-indole-3-carbonitrile]?
A: DC50 [1]: 9 nM; Dmax [1]: 97%; DC50 [2]: 9 nM; Dmax [2]: 101%

Q: With Cn1c(=O)n(C2CCC(=O)NC2=O)c2cccc(CN3CCN(CC4CCN(c5ccc(C6CCN(c7ccc(F)c8c(C#N)c[nH]c78)CC6)cc5)CC4)CC3)c21 (centres unmarked) [Example 71, 7-[4-(4-{4-[(4-{[1-(2,6-Dioxopiperidin-3-yl)-3-methyl-2-oxo-2,3-dihydro-1H-benzimidazol-4-yl]methyl}piperazin-1-yl)methyl]piperidin-1-yl}phenyl)piperidin-1-yl]-4-fluoro-1H-indole-3-carbonitrile] as the compound, how does the DC50 [1] read?
A: 7 nM

Q: What about the Dmax [1] of the same compound?
A: 84%

Q: And the DC50 [2]?
A: 7 nM

Q: What about the Dmax [2] of the same compound?
A: 94%

Q: Which results are given for Cn1c(=O)n(C2CCC(=O)NC2=O)c2cccc(N3CCN(CC4CCN(c5ccc(C6CCN(c7ccc(Cl)c8c(C#N)c[nH]c78)CC6)cc5)CC4)CC3)c21 (centres unmarked) [Example 72, 4-Chloro-7-(4-{4-[4-({4-[1-(2,6-dioxopiperidin-3-yl)-3-methyl-2-oxo-2,3-dihydro-1H-benzimidazol-4-yl]piperazin-1-yl}methyl)piperidin-1-yl]phenyl}piperidin-1-yl)-1H-indole-3-carbonitrile]?
A: DC50 [1]: 14 nM; Dmax [1]: 91%; DC50 [2]: 21 nM; Dmax [2]: 92%

Q: With Cn1c(=O)n(C2CCC(=O)NC2=O)c2cccc(CN3CCN(CC4CCN(c5ccc([C@@H]6CCCN(c7ccc(Cl)c8c(C#N)c[nH]c78)C6)cc5)CC4)CC3)c21 (stereo partly drawn) [Example 73, 4-Chloro-7-[(3S)-3-(4-{4-[(4-{[1-(2,6-dioxopiperidin-3-yl)-3-methyl-2-oxo-2,3-dihydro-1H-benzimidazol-4-yl]methyl}piperazin-1-yl)methyl]piperidin-1-yl}phenyl)piperidin-1-yl]-1H-indole-3-carbonitrile] as the compound, how does the DC50 [1] read?
A: 7 nM

Q: What about the Dmax [1] of the same compound?
A: 93%

Q: And the DC50 [2]?
A: 13 nM

Q: What about the Dmax [2] of the same compound?
A: 90%

Q: How did the DC50 [1] turn out when Cn1c(=O)n(C2CCC(=O)NC2=O)c2cccc(CN3CCN(CC4CCN(c5ccc([C@@H]6CCCN(c7ccc(F)c8c(C#N)c[nH]c78)C6)cc5)CC4)CC3)c21 (some centres unmarked) [Example 74] was run?
A: 8 nM

Q: What about the Dmax [1] of the same compound?
A: 93%

Q: And the DC50 [2]?
A: 21 nM

Q: And the Dmax [2]?
A: 70%

Q: For N#Cc1c[nH]c2c(N3CCC(c4ccc(N5CCC(CN6Cc7cc8c(cc7C6)C(=O)N(C6CCC(=O)NC6=O)C8=O)CC5)cc4)CC3)ccc(Cl)c12 (centres unmarked) [Example 75, 4-Chloro-7-{4-[4-(4-{[6-(2,6-dioxopiperidin-3-yl)-5,7-dioxo-3,5,6,7-tetrahydropyrrolo[3,4-f]isoindol-2(1H)-yl]methyl}piperidin-1-yl)phenyl]piperidin-1-yl}-1H-indole-3-carbonitrile], which DC50 [1] is on record?
A: 62 nM

Q: What about the Dmax [1] of the same compound?
A: 68%

Q: And the DC50 [2]?
A: 68 nM

Q: What about the Dmax [2] of the same compound?
A: 83%

Q: With N#Cc1n[nH]c2c(N3CCC[C@@H](c4ccc(N5CCC(CN6Cc7cc8c(cc7C6)C(=O)N(C6CCC(=O)NC6=O)C8=O)CC5)cc4)C3)ccc(Cl)c12 (stereo partly drawn) [Example 76, 4-Chloro-7-{(3S)-3-[4-(4-{[6-(2,6-dioxopiperidin-3-yl)-5,7-dioxo-3,5,6,7-tetrahydropyrrolo[3,4-f]isoindol-2(1H)-yl]methyl}piperidin-1-yl)phenyl]piperidin-1-yl}-1H-indazole-3-carbonitrile] as the compound, how does the DC50 [1] read?
A: 18 nM

Q: And the Dmax [1]?
A: 92%

Q: What about the DC50 [2] of the same compound?
A: 38 nM

Q: What about the Dmax [2] of the same compound?
A: 104%

Q: How did the DC50 [1] turn out when N#Cc1c[nH]c2c(N3CCC[C@@H](c4ccc(N5CCC(CN6Cc7cc8c(cc7C6)C(=O)N(C6CCC(=O)NC6=O)C8=O)CC5)cc4)C3)ccc(Cl)c12 (stereo partly drawn) [Example 77, 4-Chloro-7-{(3S)-3-[4-(4-{[6-(2,6-dioxopiperidin-3-yl)-5,7-dioxo-3,5,6,7-tetrahydropyrrolo[3,4-f]isoindol-2(1H)-yl]methyl}piperidin-1-yl)phenyl]piperidin-1-yl}-1H-indole-3-carbonitrile] was run?
A: 14 nM

Q: What about the Dmax [1] of the same compound?
A: 79%

Q: And the DC50 [2]?
A: 67 nM

Q: And the Dmax [2]?
A: 69%
